Assay results as given in patent publication US20250136595A1, “ACYLATED HETEROCYCLIC QUINAZOLINE DERIVATIVES AS INHIBITORS OF ERBB2” (Enliven Inc., priority 2022, published 2025).

Assays:
[1] = biological target: T1, phosphorylated EGFR (pEGFR) (Homo sapiens, UniProt P00533); assay: Detection of phosphorylated EGFR (pEGFR) in EGF-stimulated A431 cells (AlphaLISA); type: cell-based; conditions: A431 cells (10% FBS), 4 hours incubation, EGF 30 ng/mL for 10 minutes
T1 construct: performed to measure phosphorylated EGFR levels using A431 cells; endogenous in cells; host or cells: A431
Description: Enzyme-linked immunosorbent assays (ELISA) were performed to measure phosphorylated EGFR levels using A431 cells (10% FBS). A431 (1.0*10^4 cells/40 μl/well) cells were seeded in 384 well. Compounds were dissolved in DMSO, serially diluted in DMSO and then were added, mixed, and incubated for 4 hours at 37° C., 5% CO2. Following the 4-hours incubation, cells were stimulated for 10 minutes with EGF (Invitrogen, cat #PHG0311) at a final concentration of 30 ng/mL in the incubator. The media was aspirated and cells were lysed in 10 μL lysis buffer with protease and phosphatase inhibitors (PerkinElmer, cat #ALSU-PEGFR-A50K). The plates were placed on a shaker for 5 minutes and then incubated for 30 min at 4° C. for complete lysis. The lysate was transferred to an Optiplate (Perkin Elmer, cat #6007290).
Acceptor mix (PerkinElmer, cat #ALSU-PEGFR-A50K) was prepared just before use and 5 μL was dispensed to all the wells, followed by a 1.5-2 h incubation at room temperature in dark. The donor mix (PerkinElmer, cat #ALSU-PEGFR-A50K) was prepared under low light conditions prior to use and 5 μl of donor mix was added to all the wells under subdued lighting or green filters. The plates were placed on a shaker for 5 min, sealed, and incubated overnight at room temperature in dark. Plates were read on the Envision (PerkinElmer) using standard AlphaLISA settings.
The percentage of inhibition on EGFR phosphorylation was calculated following equation: % Inhibition=100×(LumHC−LumSample)/(LumHC−LumLC). The low and high controls (LC/HC) are generated from lysate from wells with cells treated with DMSO or […] Staurosporine (BioAustralis, cat #BIA-S1086), […]. IC50 values were calculated by fitting the Curve using XLfit (v5.3.1.3), equation 201: Y=Bottom+ (Top−Bottom)/(1+10^((LogIC50−X)*HillSlope)).

[2] = biological target: Ba/F3 ERBB2 YVMA (Homo sapiens, UniProt P04626, DUP772-775, cells depend on it); assay: Cell viability assay (CellTiter Glo) in Ba/F3 cells engineered to express ERBB2 YVMA; type: cell-based, mouse; conditions: Ba/F3 cells expressing human ERBB2 YVMA mutant, 72 hours, % viability, read-out: Ba/F3 ERBB2 YVMA IC50
Description: Cells were treated with compounds, and cell viability was measured as a metric of kinase inhibition.
The Ba/F3 cell line is IL-3-dependent mouse cell line derived from the C3H mouse strain. Ba/F3 cell lines were engineered to express human ERBB2 or EGFR kinases, rendering the cells IL-3 independent. The lines were generated via retroviral transduction utilizing a Moloney murine leukemia virus (MMLV) promoter, and constructs are stably integrated into the cell genome. The sequences of the ERBB2 and EGFR genes used were NCBI Reference Sequences NM_004448.3 and NM_005228.3, respectively.
Similarly, Ba/F3 cell lines engineered to express EGFR, ERBB2, or ERBB2 mutants were grown, harvested, counted and seeded at 3000 cells per well in 96-well plates for the data sets shown in Tables B3-B4. A subset of wells contained media only (low control, “LC”).
Table B1 provides the growth media and number of cells seeded per well for the each cell line.
Compounds were dissolved in DMSO and serially diluted. Serially-diluted compound or a DMSO only control (high control, “HC”) was added to the plated cells in each well. […] The final proportion of DMSO never exceeded 0.1%.
Plates were placed in a 37° C., 5% CO2 incubator for 72 hours. Plates were then removed from the incubator and equilibrated for 15 minutes at room temperature. 40 μl of CellTiter Glo reagent (Promega) was added to measure the relative level of metabolically active cells by quantifying intracellular ATP concentrations. Plates were incubated for 30 minutes at room temperature, and luminescence was measured. Percent viability was normalized to a vehicle control only using the following formula: % viability=100×(Lumsample−LumLC)/(LumHC−LumLC). Graphical curves were fitted using a nonlinear regression model with a sigmoidal dose response.

[3] = biological target: T2, phosphorylated ERBB2 (pERBB2) (Homo sapiens, UniProt P04626); assay: Detection of phosphorylated ERBB2 (pERBB2) by ELISA in BT-474 cells; type: cell-based; conditions: four hour incubation with compound
T2 construct: endogenous in cells; host or cells: BT-474
Description: BT-474 cells were seeded into a 96-well at 2.0*10^4 cells/100 μl/well. Compounds were dissolved and serially diluted in DMSO. The compounds were then were added, mixed, and incubated for four hours at 37° C., 5% CO2. Compounds were added using four-fold dilutions at final concentrations ranging from 10 μM to 0.01 nM. Following the four hour incubation with compounds, cell lysates were prepared. Plates were centrifuged for 5 min at 3000 RPM, and supernatant was removed from each well. Cells were washed 3 times by resuspension in 150 μl PBS, followed by centrifugation and removal of the supernatant, as above. […] Cells were incubated with lysis buffer for 1 hour at 4° C., and then stored at -80° C. Enzyme-linked immunosorbent assays (ELISA) were performed to measure phosphorylated ERBB2 levels. […] The next day, plates were washed with PBS+0.05% Tween20 (PBST). 150 μl of 5% BSA blocking solution was added for 1 hour at room temperature, with shaking. Plates were washed with PBST. Cell lysates were thawed and 100 μl of lysate was added to the ELISA plate. The plates were incubated for 2 hours at room temperature, with shaking. […] Plates were incubated for 1 hour at room temperature, with shaking. Plates were then washed with PBST, and 100 μl TMB substrate solution (R&D Systems, cat #DY999) was added. Plate were incubated in the dark for 20 minutes at room temperature. 50 μl of Stop solution (R&D Systems, cat #DY994) (50 μl) was added to each well and mixed. Optical density at 450 nm was read on an EnSpire plate reader (Perkin Elmer). The remaining kinase activity by calculated using the following formula: % Relative activity=100×([…]). The low and high control values (“LC” and “HC”) were generated from lysate from wells without cells or with cells treated with 0.1% DMSO, respectively.

T2 sequence (P04626 23-1255): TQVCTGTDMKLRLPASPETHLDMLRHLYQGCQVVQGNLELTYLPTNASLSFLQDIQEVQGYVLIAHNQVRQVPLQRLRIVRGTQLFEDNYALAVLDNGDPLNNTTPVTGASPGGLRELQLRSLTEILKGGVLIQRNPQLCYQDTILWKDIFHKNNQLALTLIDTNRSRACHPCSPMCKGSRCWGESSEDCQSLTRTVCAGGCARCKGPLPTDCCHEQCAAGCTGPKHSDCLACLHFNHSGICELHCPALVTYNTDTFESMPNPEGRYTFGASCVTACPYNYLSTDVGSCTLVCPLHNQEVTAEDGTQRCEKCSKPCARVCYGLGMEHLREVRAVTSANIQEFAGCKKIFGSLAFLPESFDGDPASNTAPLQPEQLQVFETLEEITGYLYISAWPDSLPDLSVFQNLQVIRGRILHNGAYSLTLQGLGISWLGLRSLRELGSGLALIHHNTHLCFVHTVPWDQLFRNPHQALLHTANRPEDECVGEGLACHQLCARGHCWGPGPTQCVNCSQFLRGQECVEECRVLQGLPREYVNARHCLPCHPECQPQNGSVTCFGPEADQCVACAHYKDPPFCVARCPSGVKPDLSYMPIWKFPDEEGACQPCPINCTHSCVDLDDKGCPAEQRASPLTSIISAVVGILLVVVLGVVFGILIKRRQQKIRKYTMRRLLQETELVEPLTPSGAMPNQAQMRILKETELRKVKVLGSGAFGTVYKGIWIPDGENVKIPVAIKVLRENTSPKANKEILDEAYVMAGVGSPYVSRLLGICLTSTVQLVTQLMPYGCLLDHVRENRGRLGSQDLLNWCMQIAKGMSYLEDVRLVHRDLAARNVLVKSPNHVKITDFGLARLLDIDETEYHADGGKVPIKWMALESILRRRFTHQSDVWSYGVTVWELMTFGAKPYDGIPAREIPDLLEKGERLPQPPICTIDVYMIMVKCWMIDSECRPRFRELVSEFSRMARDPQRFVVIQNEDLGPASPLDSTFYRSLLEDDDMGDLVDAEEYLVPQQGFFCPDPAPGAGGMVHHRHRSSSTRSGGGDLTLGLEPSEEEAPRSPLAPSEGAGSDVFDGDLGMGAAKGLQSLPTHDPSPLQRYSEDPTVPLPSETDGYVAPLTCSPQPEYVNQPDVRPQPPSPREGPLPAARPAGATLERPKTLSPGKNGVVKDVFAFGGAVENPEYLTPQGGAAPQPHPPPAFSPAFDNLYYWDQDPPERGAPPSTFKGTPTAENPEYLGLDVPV
Sequence of Ba/F3 ERBB2 YVMA (P04626 with tags, fused parts or gaps DUP772-775): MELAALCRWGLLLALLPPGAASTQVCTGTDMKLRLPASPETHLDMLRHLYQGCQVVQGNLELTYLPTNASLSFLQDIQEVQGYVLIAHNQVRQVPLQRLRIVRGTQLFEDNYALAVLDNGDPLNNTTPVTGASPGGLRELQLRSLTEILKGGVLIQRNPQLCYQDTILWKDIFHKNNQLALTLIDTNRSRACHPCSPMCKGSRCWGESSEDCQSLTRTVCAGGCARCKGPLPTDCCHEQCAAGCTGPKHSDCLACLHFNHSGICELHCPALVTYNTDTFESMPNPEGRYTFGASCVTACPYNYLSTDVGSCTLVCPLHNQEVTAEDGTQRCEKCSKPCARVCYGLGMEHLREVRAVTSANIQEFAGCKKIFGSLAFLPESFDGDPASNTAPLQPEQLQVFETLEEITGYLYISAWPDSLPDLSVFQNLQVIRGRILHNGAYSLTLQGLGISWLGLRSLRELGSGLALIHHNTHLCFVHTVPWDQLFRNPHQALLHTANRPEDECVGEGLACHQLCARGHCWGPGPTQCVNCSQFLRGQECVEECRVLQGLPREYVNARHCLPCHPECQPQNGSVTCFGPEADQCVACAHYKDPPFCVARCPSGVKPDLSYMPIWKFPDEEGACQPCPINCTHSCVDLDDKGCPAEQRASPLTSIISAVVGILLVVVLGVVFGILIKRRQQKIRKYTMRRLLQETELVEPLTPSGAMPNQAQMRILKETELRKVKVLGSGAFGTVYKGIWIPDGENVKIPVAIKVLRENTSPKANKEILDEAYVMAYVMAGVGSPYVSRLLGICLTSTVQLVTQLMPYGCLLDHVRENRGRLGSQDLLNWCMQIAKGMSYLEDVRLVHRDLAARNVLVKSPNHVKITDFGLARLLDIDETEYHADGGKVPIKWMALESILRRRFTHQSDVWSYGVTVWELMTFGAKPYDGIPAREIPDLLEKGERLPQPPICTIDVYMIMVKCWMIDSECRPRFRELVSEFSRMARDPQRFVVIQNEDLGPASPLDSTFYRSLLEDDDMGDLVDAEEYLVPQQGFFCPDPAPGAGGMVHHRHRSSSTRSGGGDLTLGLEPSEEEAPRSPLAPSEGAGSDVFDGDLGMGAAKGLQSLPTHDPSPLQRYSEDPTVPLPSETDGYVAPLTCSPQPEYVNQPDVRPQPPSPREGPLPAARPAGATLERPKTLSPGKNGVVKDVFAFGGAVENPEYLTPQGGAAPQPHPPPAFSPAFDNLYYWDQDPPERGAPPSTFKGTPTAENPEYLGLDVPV
T1 sequence (P00533 25-1210): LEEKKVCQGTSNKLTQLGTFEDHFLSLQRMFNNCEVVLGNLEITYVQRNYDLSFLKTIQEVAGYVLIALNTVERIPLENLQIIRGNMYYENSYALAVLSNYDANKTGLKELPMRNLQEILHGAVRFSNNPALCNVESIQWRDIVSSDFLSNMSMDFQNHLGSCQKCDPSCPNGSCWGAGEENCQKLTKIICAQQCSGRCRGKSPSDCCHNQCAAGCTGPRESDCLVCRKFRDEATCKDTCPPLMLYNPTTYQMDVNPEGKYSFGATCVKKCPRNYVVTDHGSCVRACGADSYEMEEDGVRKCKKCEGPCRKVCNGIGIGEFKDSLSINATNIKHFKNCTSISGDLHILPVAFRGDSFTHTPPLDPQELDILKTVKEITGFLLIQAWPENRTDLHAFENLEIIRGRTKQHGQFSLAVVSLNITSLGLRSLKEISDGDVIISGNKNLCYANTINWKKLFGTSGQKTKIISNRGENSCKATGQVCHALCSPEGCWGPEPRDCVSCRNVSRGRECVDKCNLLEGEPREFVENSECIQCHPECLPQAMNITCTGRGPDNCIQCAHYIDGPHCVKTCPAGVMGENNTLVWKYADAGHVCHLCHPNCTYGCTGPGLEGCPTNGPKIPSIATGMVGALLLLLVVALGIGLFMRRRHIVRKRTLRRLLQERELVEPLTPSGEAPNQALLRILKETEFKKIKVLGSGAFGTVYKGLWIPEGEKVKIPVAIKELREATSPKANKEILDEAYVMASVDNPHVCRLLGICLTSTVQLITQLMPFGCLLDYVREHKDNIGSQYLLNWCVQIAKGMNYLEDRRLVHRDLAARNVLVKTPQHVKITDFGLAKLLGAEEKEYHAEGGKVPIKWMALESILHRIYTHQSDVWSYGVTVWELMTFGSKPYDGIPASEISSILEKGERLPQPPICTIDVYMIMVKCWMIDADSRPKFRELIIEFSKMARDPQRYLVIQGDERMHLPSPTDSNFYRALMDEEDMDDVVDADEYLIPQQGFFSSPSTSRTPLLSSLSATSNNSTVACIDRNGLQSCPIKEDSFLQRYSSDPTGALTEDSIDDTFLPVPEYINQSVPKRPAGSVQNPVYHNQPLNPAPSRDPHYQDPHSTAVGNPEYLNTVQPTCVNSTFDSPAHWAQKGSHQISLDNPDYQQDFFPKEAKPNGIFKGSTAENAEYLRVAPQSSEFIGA

| Structure (SMILES) | IC50 [1] [nM] | GI50 [2] [nM] | IC50 [3] [nM] |
| --- | --- | --- | --- |
| C=CC(=O)N1CCN(c2ncc3ncnc(Nc4ccc(Cc5ccc6c(c5)ncn6C)c(C)c4)c3n2)C[C@H]1C [Compound 96, (R)-1-(2-methyl-4-(8-((3-methyl-4-((1-methyl-1H-benzo[d]imidazol-5-yl)methyl)phenyl)amino)pyrimido[5,4-d]pyrimidin-2-yl)piperazin-1-yl)prop-2-en-1-one] | 7290 | 12.5 | 63.1 |
| CC#CC(=O)N1CCN(c2ccc3ncnc(Nc4ccc(Oc5ccn6ncnc6c5)c(C)c4)c3n2)CC1 [Compound 8, 1-(4-{4-[(3-methyl-4-{[1,2,4]triazolo[1,5-a]pyridin-7-yloxy}phenyl)amino]pyrido[3,2-d]pyrimidin-6-yl}piperazin-1-yl)but-2-yn-1-one] | 5170 | 18.9 | 27.1 |
| C=CC(=O)N1CCN(c2ccc3ncnc(Nc4ccc(Cc5ccn6ncnc6c5)c(C)c4)c3c2)C[C@H]1C [Compound 112, (R)-1-(4-(4-((4-([1,2,4]triazolo[1,5-a]pyridin-7-ylmethyl)-3-methylphenyl)amino)quinazolin-6-yl)-2-methylpiperazin-1-yl)prop-2-en-1-one] | > 10000 | 28 | 33.1 |
| C=CC(=O)N1CC2CC1CN2c1ccc2ncnc(Nc3ccc(Cc4ccn5ncnc5c4)c(C)c3)c2n1 (stereo not drawn) [Compound 128, 1-(5-(4-((4-([1,2,4]triazolo[1,5-a]pyridin-7-ylmethyl)-3-methylphenyl)amino)pyrido[3,2-d]pyrimidin-6-yl)-2,5-diazabicyclo[2.2.1]heptan-2-yl)prop-2-en-1-one] | 530 | 7.45 | 19.8 |
| C=CC(=O)N1CCN(c2ccc3ncnc(Nc4ccc(Oc5ccc6c(c5)ncn6C)c(C)c4)c3c2)C[C@H]1C [Compound 58, 1-[(2R)-2-methyl-4-[4-({3-methyl-4-[(1-methyl-1,3-benzodiazol-5-yl)oxy]phenyl}amino)quinazolin-6-yl]piperazin-1-yl]prop-2-en-1-one] | 2460 | 24.1 | 31.4 |
| C=CC(=O)N1CCN(c2ncc3ncnc(Nc4ccc(Cc5ccc6c(c5)ncn6C)c(C)c4)c3n2)CC1 [Compound 84, 1-{4-[8-({3-methyl-4-[(1-methyl-1,3-benzodiazol-5-yl)methyl]phenyl}amino)-[1,3]diazino[5,4-d]pyrimidin-2-yl]piperazin-1-yl}prop-2-en-1-one] | > 10000 | 10.7 | 25.2 |
| Cc1cc(Nc2ncnc3ccc(N4CCN(C(=O)/C=C/CN(C)C)CC4)nc23)ccc1Cc1ccn2ncnc2c1 [Compound 87, (E)-1-(4-(4-((4-([1,2,4]triazolo[1,5-a]pyridin-7-ylmethyl)-3-methylphenyl)amino)pyrido[3,2-d]pyrimidin-6-yl)piperazin-1-yl)-4-(dimethylamino)but-2-en-1-one] | 2420 | 17.3 | 12.9 |
| C=CC(=O)N1CCN(c2ccc3ncnc(Nc4ccc(Oc5ccc6c(c5)ncn6C)c(C)c4)c3c2)[C@@H](C)C1 [Compound 89, 1-[(3S)-3-methyl-4-[4-({3-methyl-4-[(1-methyl-1,3-benzodiazol-5-yl)oxy]phenyl}amino)quinazolin-6-yl]piperazin-1-yl]prop-2-en-1-one] | 5380 | 152 | 19 |
| CC#CC(=O)N1C2CC1CN(c1ccc3ncnc(Nc4ccc(Oc5ccn6ncnc6c5)c(C)c4)c3n1)C2 [Compound 29, 1-(3-{4-[(3-methyl-4-{[1,2,4]triazolo[1,5-a]pyridin-7-yloxy}phenyl)amino]pyrido[3,2-d]pyrimidin-6-yl}-3,6-diazabicyclo[3.1.1]heptan-6-yl)but-2-yn-1-one] | 5430 | 35.9 | – |
| Cc1cc(Nc2ncnc3ccc(NC4=NC(C)(C)CO4)cc23)ccc1Oc1ccn2ncnc2c1 [Tucatinib, tucatinib, reference compound] | – | 356 | – |
